Assays:
[1] = molecular target: Serine/threonine-protein kinase OSR1 (Homo sapiens) (UniProt O95747); test: Selectivity interaction (Kinase panel (KiNativ target engagement assay in Jurkat cells)) EUB0001635a OXSR1; format: cell-based; conditions: Selectivity number of off-targets 0.0, Selectivity number of targets 233.0, Source Knowledge https://www.sciencedirect.com/science/article/pii/S2451945619300674?via%3Dihub, at 1 µM
[2] = molecular target: Cyclin-dependent kinase-like 1 (Homo sapiens) (UniProt Q00532); test: Selectivity interaction (KinomeScan (DiscoverX)) EUB0000045b CDKL1
[3] = molecular target: T1, Ephrin type-B receptor 6 (Homo sapiens) (UniProt O15197); test: Selectivity interaction (KinomeScan (DiscoverX)) EUB0000045b EPHB6
T1 sequence (whole entry): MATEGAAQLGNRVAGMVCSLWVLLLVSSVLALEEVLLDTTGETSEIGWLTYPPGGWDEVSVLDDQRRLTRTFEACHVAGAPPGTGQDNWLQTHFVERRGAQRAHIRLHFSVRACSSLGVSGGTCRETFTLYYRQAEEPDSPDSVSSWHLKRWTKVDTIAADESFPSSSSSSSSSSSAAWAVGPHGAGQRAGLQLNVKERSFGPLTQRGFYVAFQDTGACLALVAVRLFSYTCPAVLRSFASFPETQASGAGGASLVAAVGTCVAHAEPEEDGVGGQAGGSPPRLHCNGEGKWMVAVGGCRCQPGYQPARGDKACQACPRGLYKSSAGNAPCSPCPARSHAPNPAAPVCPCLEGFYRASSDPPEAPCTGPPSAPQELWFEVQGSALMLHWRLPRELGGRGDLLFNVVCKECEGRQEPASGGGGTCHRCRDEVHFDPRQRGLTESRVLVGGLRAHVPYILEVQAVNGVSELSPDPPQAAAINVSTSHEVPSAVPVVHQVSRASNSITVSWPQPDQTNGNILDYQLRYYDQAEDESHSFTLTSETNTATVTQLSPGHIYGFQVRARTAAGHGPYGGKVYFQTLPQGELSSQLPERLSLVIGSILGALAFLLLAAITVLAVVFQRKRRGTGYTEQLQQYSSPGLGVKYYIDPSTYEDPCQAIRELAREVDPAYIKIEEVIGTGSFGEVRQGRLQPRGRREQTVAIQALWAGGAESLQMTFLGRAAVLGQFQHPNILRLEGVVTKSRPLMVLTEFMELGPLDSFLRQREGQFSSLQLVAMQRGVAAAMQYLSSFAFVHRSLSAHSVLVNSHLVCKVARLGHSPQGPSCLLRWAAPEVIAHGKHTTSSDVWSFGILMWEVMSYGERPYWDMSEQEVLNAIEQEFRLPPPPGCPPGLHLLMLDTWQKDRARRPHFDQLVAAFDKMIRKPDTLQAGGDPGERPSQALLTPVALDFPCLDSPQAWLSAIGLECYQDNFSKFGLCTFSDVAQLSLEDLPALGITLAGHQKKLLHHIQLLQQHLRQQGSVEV

[4] = molecular target: Serine/threonine-protein kinase 32C (Homo sapiens) (UniProt Q86UX6); test: Selectivity interaction (KinomeScan (DiscoverX)) EUB0000695a STK32C; conditions: at 100 nM
[5] = molecular target: Macrophage colony-stimulating factor 1 receptor (Homo sapiens) (UniProt P07333); test: Selectivity interaction (KinomeScan (DiscoverX)) EUB0001079a CSF1R; conditions: at 1 µM
[6] = molecular target: Calcium/calmodulin-dependent protein kinase type 1G (Homo sapiens) (UniProt Q96NX5); test: Selectivity interaction (Kinase panel (Z-LYTE Assay)) EUB0001632a CAMK1G; conditions: at 10 µM
[7] = molecular target: Serine/threonine-protein kinase MARK2 (Homo sapiens) (UniProt Q7KZI7); test: Selectivity interaction (Kinase panel (Z-LYTE Assay)) EUB0001632a MARK2; conditions: at 10 µM
[8] = molecular target: Serine/threonine-protein kinase 26 (Homo sapiens, UniProt Q9P289); test: Selectivity interaction (Kinase panel (Z-LYTE Assay)) EUB0001632a STK26; conditions: at 10 µM
[9] = molecular target: Dual specificity mitogen-activated protein kinase kinase 2 (Homo sapiens) (UniProt P36507); conditions: at 10 µM
[10] = molecular target: Tyrosine-protein kinase JAK2 (Homo sapiens, UniProt O60674); test: Selectivity interaction (Kinase panel (33PanQinase(R) Activity Assay)) EUB0000877a JAK2
[11] = molecular target: Sodium-dependent serotonin transporter (Homo sapiens, UniProt P31645); test: Selectivity interaction (Panel of kinases, GPCRs, ion channels and transporters (enzymatic assay)) EUB0000266bCl SLC6A4
[12] = molecular target: T2, MAP/microtubule affinity-regulating kinase 4 (Homo sapiens) (UniProt Q96L34); test: Selectivity interaction (ActivX KiNativ screen (kinase selectivity in THP-1 cell lysates)) EUB0000639a MARK4; format: subcellular; conditions: lysate, at 0.2 µM
T2 sequence (whole entry): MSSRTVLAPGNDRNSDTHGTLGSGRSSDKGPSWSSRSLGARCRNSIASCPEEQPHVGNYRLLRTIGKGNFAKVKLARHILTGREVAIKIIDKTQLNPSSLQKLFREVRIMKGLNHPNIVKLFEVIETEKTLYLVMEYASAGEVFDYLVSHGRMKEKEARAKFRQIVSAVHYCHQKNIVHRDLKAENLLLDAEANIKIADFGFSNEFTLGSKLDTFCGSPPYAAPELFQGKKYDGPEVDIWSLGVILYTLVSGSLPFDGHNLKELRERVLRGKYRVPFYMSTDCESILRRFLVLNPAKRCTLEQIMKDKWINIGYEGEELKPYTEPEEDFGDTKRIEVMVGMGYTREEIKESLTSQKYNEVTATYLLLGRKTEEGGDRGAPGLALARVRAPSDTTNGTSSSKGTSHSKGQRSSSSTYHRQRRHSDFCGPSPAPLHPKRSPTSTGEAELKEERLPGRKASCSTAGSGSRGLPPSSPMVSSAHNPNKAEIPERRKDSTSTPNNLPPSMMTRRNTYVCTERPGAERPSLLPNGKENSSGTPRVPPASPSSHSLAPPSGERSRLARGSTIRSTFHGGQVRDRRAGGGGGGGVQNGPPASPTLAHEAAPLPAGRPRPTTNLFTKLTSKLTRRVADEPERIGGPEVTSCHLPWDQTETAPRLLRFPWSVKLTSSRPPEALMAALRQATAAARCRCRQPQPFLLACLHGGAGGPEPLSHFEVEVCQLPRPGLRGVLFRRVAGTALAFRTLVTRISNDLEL

[13] = molecular target: Death-associated protein kinase 3 (Homo sapiens) (UniProt O43293); conditions: at 10 µM
Death-associated protein kinase 3 (Homo sapiens), sequence (O43293 whole entry, looked up): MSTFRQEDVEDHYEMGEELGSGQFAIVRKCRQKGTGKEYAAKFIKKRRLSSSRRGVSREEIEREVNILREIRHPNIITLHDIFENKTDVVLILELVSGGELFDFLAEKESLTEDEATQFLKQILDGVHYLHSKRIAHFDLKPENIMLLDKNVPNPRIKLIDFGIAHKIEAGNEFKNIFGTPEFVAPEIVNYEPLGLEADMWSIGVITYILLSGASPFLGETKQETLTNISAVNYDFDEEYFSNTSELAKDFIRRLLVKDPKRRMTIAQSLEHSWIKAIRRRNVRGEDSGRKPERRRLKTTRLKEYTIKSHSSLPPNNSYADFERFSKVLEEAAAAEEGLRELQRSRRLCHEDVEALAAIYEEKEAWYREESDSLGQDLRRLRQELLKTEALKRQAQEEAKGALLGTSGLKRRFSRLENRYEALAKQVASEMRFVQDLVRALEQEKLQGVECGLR

Cyclin-dependent kinase-like 1 (Homo sapiens), sequence (Q00532 whole entry): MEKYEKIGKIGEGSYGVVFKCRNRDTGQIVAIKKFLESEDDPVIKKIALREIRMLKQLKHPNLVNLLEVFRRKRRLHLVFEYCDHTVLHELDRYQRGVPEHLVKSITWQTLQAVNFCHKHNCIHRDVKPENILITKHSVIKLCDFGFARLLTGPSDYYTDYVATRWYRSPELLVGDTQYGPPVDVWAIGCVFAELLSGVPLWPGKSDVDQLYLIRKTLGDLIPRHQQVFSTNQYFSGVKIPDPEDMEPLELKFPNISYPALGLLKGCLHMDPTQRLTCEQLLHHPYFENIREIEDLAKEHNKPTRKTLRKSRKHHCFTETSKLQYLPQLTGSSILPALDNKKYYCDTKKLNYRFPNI
Sodium-dependent serotonin transporter, sequence (P31645 whole entry, looked up): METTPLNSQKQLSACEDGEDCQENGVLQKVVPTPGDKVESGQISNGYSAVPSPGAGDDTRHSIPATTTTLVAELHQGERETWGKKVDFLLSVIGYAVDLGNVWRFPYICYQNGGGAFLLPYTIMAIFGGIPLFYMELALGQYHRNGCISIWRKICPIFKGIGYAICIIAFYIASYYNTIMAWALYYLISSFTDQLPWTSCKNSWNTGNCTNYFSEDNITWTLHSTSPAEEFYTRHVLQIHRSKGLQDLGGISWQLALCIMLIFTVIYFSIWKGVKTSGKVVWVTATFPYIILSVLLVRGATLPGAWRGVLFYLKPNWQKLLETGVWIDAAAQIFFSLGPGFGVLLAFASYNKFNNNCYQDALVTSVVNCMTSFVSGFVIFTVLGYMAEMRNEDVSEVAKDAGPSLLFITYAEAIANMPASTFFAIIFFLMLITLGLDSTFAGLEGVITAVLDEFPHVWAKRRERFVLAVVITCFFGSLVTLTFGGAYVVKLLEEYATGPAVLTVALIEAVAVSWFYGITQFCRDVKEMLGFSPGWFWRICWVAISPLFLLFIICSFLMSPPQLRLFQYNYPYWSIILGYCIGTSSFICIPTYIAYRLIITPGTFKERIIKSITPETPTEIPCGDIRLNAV
Calcium/calmodulin-dependent protein kinase type 1G (Homo sapiens), sequence (Q96NX5 whole entry): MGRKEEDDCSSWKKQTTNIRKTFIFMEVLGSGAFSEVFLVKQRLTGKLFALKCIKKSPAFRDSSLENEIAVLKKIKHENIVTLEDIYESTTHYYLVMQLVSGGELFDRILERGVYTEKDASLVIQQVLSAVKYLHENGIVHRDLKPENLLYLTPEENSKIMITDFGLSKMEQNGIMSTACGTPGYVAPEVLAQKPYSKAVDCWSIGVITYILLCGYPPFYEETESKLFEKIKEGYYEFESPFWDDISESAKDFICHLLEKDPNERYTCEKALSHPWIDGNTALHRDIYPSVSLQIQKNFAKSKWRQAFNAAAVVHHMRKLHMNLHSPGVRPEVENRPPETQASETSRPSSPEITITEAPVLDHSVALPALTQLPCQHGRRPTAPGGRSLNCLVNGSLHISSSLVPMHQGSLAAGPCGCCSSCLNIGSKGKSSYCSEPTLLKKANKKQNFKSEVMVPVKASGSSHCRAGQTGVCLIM
Dual specificity mitogen-activated protein kinase kinase 2 (Homo sapiens), sequence (P36507 whole entry): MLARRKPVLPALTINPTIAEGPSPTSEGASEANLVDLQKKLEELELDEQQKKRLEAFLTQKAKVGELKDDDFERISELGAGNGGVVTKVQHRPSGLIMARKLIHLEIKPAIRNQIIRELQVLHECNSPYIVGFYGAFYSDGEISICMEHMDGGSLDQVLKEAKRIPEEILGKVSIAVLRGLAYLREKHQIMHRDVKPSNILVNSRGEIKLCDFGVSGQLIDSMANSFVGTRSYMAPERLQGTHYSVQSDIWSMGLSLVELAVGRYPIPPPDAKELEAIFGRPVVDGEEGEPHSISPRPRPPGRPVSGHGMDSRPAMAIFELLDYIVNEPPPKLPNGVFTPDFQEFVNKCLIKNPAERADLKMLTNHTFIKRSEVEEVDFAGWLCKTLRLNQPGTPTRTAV
Serine/threonine-protein kinase OSR1 (Homo sapiens), sequence (O95747 2-527 limits assumed): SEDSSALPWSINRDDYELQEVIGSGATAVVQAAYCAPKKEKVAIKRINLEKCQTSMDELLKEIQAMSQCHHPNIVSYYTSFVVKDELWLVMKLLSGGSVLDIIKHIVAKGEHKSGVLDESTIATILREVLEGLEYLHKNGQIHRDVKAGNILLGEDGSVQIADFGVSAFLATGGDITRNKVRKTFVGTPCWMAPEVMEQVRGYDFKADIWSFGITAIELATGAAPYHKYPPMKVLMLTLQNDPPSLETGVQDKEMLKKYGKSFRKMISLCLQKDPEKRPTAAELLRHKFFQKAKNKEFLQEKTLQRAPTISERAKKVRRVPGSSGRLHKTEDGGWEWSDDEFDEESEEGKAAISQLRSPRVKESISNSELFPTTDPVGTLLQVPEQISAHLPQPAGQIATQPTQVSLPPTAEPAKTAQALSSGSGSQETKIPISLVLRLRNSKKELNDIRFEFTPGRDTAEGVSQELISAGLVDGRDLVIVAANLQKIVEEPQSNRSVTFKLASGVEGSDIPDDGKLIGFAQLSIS
Tyrosine-protein kinase JAK2, sequence (O60674 whole entry): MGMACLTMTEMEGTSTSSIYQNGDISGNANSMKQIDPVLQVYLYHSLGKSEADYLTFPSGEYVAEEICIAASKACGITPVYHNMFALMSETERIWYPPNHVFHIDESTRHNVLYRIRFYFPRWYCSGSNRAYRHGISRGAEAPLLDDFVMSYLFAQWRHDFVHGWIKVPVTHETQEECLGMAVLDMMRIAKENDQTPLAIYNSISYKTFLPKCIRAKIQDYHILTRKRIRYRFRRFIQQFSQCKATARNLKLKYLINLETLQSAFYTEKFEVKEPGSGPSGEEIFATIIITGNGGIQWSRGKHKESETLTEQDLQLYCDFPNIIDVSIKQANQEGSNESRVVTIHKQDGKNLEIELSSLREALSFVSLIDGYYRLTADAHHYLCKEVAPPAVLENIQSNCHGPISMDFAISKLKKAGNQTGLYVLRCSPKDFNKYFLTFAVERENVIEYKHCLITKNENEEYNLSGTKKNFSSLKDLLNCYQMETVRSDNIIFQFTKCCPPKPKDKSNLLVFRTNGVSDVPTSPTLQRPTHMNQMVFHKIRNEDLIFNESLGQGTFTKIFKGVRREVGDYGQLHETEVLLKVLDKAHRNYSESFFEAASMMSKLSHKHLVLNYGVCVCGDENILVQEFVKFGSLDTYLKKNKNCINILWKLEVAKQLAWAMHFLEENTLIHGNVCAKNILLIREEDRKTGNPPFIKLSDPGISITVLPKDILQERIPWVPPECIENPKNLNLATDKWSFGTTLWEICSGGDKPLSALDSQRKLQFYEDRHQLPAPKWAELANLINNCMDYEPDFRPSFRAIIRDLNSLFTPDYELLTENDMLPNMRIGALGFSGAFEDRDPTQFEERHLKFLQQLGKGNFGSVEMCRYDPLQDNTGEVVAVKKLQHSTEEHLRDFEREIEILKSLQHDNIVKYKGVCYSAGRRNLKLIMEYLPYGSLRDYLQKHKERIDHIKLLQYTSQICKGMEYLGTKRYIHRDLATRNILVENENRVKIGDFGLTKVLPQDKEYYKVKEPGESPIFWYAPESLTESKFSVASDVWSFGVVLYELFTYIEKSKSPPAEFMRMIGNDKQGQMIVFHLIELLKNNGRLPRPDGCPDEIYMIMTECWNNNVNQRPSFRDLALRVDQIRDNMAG
Macrophage colony-stimulating factor 1 receptor (Homo sapiens), sequence (P07333 whole entry): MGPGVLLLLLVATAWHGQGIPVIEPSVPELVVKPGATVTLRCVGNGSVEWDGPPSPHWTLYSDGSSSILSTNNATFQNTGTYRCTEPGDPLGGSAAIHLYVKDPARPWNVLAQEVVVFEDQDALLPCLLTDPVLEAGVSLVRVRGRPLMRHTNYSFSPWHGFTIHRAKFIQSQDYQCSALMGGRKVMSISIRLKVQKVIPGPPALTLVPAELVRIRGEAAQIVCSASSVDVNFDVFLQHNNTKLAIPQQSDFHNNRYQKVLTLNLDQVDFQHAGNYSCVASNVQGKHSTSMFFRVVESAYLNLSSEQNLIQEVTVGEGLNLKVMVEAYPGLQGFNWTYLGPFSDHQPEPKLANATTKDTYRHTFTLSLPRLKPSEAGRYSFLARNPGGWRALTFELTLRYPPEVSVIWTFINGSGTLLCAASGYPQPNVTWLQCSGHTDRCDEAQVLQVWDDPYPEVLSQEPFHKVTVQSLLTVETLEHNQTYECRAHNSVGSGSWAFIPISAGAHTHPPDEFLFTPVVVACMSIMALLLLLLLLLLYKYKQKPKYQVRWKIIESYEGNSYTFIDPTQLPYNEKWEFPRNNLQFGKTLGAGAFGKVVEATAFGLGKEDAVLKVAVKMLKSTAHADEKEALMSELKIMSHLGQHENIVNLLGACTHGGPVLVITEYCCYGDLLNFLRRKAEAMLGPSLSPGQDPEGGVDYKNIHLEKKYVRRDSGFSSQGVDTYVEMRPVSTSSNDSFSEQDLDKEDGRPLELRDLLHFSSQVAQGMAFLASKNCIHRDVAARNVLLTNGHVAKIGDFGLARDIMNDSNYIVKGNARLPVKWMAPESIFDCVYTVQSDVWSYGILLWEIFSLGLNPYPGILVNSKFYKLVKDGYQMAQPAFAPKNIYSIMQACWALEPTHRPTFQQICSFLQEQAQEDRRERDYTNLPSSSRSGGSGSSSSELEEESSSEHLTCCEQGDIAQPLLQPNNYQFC

## C=CC(=O)Nc1ccc(C(=O)Nc2[nH]nc3c2CN(C(=O)N[C@H](CN(C)C)c2ccccc2)C3(C)C)cc1
[1]
  % of engagement: 2.6%

## C=CC(=O)Nc1cc(-n2c(=O)ccc3cnc4ccc(-c5ccc(NS(C)(=O)=O)cc5)cc4c32)ccc1C
[2]; at 1 µM
  % of control: 100%
[2]; at 10 µM
  % of control: 58%
[3]; at 1 µM
  % of control: 90%
[3]; at 10 µM
  % of control: 85%

## Cc1cc(F)c(C(=O)Nc2cccc(-c3nncn3C(C)C)n2)cc1-n1cnc(C2CC2)c1
[4]
  % of control: 100%

## Nc1cnc(N2CCc3cc(S(=O)(=O)Nc4c(F)cc(Cl)cc4F)cc(N4CCCC4=O)c32)nc1 [TP-020n]
[5]
  % of control: 100%

## Cn1cc(-n2cnc3c(NCc4nc5cc(Cl)c(Cl)cc5[nH]4)nc(N4CCOCC4)nc32)cn1
[6]
  % of control: -0.991%
[7]
  % of control: 5.56%
[8]
  % of control: 2.09%

## Cc1cc([C@@H](C)Nc2ccccc2C(=O)O)c2nc(N3CCOCC3)cc(=O)n2c1 [AZD-6482]
[9]
  % of control: 100%

## CCC(=O)N1CC[C@H](Nc2ncnc3c2CN(c2cnc(OC)c(C(F)(F)F)c2)CC3)C1 [LENIOLISIB]
[10]
  IC50: > 10 µM

## CCn1c(-c2nc3cc(C(=O)N4CCCC(N)C4)ccc3n2C)cc2ccccc21 (stereo not given)
[11]
  pXC50: 4.7 M

## CC[C@@H]1[C@H](F)C(=O)N[C@@H]1COc1nccc2cc(C(N)=O)c(OC)cc12 [ZIMLOVISERTIB]
[12]
  % of inhibition: 13.2%

## CCN(CC)CCCCNc1ncc2cc(-c3cc(OC)cc(OC)c3)c(NC(=O)NC(C)(C)C)nc2n1
[13]
  % of control: 100%

— ChEMBL document CHEMBL5465560, “Selectivity Literature for EUbOPEN Chemogenomic Library” (2024)
